Format in all cases: cell-based
In assay [1] the test system is rat mesangium cells. In words: Suppressive activity of galectin-3 on the cellular death of rat mesangium cells (MTS tetrazolium conversion). The following applies: 50 μg/ml galectin-3; presence and absence of 0.4 ng/ml TGF-β; day 1-4; FIG. 3. As for the experimental part:
Rat mesangium cells were separated from Sprague-Dawley rats according to the method of Striker et al. (Striker, G. E., et al., Lab. Invest. (1985) 53; 123-128). The separated rat mesangium cells were cultured at 37° C. in the presence of 5% CO2 in the wells of a 96-well plate using an essential medium (DMEM/F12 (1:1) culture medium containing 60 μg/ml penicillin, 100 μg/ml streptomycin, manufactured by Gibco BRL) supplemented with 10% fetal bovine serum. After culturing to semi-confluence, the cultured rat mesangium cells were washed with the essential medium, cultured for 2 days in the essential medium supplemented with 0.1% bovine serum albumin (Sigma), and then were further cultured for 1 to 4 days in the essential medium supplemented with 0.1% bovine serum albumin (Sigma) containing 0 or 50 μg/ml galectin-3 and 0 or 0.4 ng/ml TGF-β. On day 1, 2, 3, and 4 after the addition of galectin-3 and TGF-β, the amount of the cultured rat mesangium cells that survived in their respective wells were measured using as an index the conversion from MTS tetrazolium (Cell Titer 96 Aqueous one solution manufactured by Promega) to formazan by the living cells.

Assay [2] deals with rat mesangium cells. As to the kind of experiment: Promoting effect of galectin-3 on collagen type IV production by mesangium cells (sandwich ELISA). The following applies: 10 or 30 μg/ml galectin-3; 0-1.6 ng/ml TGF-β; day 3; FIG. 4. On the procedure: Rat mesangium cells were separated in a similar manner to that of Example 3. The separated mesangium cells were cultured at 37° C. in the presence of 5% CO2 in the wells of a 96-well plate using an essential medium (DMEM/F12 (1:1) culture medium containing 60 μg/ml penicillin, 100 μg/ml streptomycin, manufactured by Gibco BRL) supplemented with 10% fetal bovine serum. After culturing to confluence, the cultured rat mesangium cells were washed with the essential medium, cultured for 1 to 2 days in the essential medium supplemented with 0.1% bovine serum albumin (Sigma), and then were further cultured for 3 days in the essential medium supplemented with 0.1% bovine serum albumin (Sigma) containing 0, 10 or 30 μg/ml galectin-3 and 0, 0.1, 0.4 or 1.6 ng/ml TGF-β. On day 3 after the addition of galectin-3 and TGF-β, the amount of type IV collagen accumulated in the culture liquid was measured using a sandwich ELISA method that employed a goat anti-type IV collagen antibody as the immobilized antibody and a biotin-labeled goat anti-type IV collagen antibody (Chemicon) as the primary antibody. The amount of type IV collagen in the culture liquid of each well was normalized by dividing it by the amount of the living cells in each well determined in a similar manner to that described in Example 3.
For orientation: ELISA stands for enzyme-linked immunosorbent assay.

Assay [3] concerns the target galectin-3 (Homo sapiens, UniProt P17931). As to the kind of experiment: Inhibition by galectin-3-binding inhibiting sugar of galectin-3-promoted collagen type IV production by rat mesangium cells. The following applies: 0.4 μg/ml galectin-3, 0.25-2 mM LNFP-I, day 2, FIG. 6. As for the experimental part: Rat mesangium cells were separated in a similar manner to that described in Example 3. The separated rat mesangium cells were cultured at 37° C. in the presence of 5% CO2 in the wells of a 96-well plate using an essential medium (DMEM/F12 (1:1) culture medium containing 60 μg/ml penicillin, 100 μg/ml streptomycin, manufactured by Gibco BRL) supplemented with 10% fetal bovine serum. […] On day 2 after the addition of galectin-3 and LNFP-I, the amount of type IV collagen accumulated in the culture liquid of each well was measured using a sandwich ELISA method that employed a goat anti-type IV collagen antibody (Chemicon) as an immobilized antibody and a biotin-labeled goat anti-type IV collagen antibody (Chemicon) as a primary antibody. The amount of type IV collagen in the culture medium of each well was normalized by dividing it by the amount of the living cells in each well determined in a similar manner to that described in Example 4.

This note sets out measurements from patent US20080219973A1, “Pharmaceutical Composition Having Inhibitory Effect on Overproduction and Accumulation of Extracellular Matrix” (TEIJIN LIMITED, priority 1998, published 2008).

Sequence of galectin-3 (P17931 whole entry, species assumed): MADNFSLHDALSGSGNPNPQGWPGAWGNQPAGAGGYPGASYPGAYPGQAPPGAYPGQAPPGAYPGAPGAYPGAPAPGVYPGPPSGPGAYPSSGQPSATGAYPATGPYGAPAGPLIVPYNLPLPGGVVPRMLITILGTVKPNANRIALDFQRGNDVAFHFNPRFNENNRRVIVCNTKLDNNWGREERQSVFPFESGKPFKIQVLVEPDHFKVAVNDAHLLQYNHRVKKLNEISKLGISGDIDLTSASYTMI

In the case of “galectin-3: protein of about 30 Kd belonging to the family of β-galactoside binding protein; a lectin”, the “cellular death of the rat mesangium cells (amount of surviving cells)” value in assay [1] is “suppress the cellular death”. Moreover, the “production and/or accumulation of type IV collagen in culture liquid, normalized to living cells” value in assay [2] was “promotes the production and/or the accumulation of type IV collagen”.
lacto-n-fucopentaose I: the “suppression of galectin-3-promoted production and/or accumulation of type IV collagen” value in assay [3] was “suppresses the promotion of the production and/or the accumulation of type IV collagen”.
